This experiment concerns the target T1, CCR2 (Homo sapiens, UniProt P41597).
T1 sequence (P41597 1-360 isoform P41597-2): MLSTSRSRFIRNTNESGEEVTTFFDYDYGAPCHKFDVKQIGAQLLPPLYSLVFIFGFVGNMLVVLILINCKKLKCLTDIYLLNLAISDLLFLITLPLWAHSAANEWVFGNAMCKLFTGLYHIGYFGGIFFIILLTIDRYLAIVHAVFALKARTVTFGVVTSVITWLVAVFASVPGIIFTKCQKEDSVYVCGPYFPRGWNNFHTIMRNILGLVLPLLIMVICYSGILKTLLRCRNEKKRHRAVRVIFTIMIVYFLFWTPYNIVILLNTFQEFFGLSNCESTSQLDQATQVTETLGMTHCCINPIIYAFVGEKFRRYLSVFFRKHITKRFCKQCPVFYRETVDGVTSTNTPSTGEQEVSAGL

Each structure is given as a SMILES string. pIC50: −log10 of the molar value.

For orientation: pIC50 means −log10 of the IC50, conventionally taken in molar units. Low values mean a large IC50, high ones a small IC50. `COC(=O)OCC(C1CCN(C(=O)/C=C/c2cc(F)cc(F)c2)CC1)N1CCC(c2ccc(Cl)cc2)CC1` (stereo not shown) [Cpd 250, carbonic acid 2-[4-(4-chloro-phenyl)-piperidin-1-yl]-2-{1-[(2E)-3-(3,5-difluoro-phenyl)-acryloyl]-piperidin-4-yl}-ethyl ester methyl ester] had a pIC50 of 5.54. For `O=C(O)C(C1CCN(C(=O)/C=C/c2cc(F)c(F)c(F)c2)CC1)N1CCC(n2ccc3ccccc32)CC1` (stereo not shown) [Cpd 10, (4-indol-1-yl-piperidin-1-yl)-{1-[(2E)-3-(3,4,5-trifluoro-phenyl)-acryloyl]-piperidin-4-yl}-acetic acid], the negative logarithm of the IC50 (pIC50) is 5.07. On to `COC(=O)C(C1CCN(C(=O)/C=C/c2cc(F)c(F)c(F)c2)CC1)N1CCC(c2c[nH]c3c(OC)cccc23)CC1` (stereo not shown) [Cpd 118, [4-(7-methoxy-1H-indol-3-yl)-piperidin-1-yl]-{1-[(2E)-3-(3,4,5-trifluoro-phenyl)-acryloyl]-piperidin-4-yl}-acetic acid methyl ester], for which the pIC50 is 5.49. As to `O=CNCC(C1CCN(C(=O)/C=C/c2ccc(Cl)c(Cl)c2)CC1)N1CCC(c2c[nH]c3ccccc23)CC1` (stereo not shown) [Cpd 222], the pIC50 is 6.17. Still for that read-out and setting: in the case of `O=C(O)C(C1CCN(C(=S)Nc2ccc(F)cc2F)CC1)N1CCC(c2c[nH]c3ccccc23)CC1` (stereo not shown) [Cpd 44, [1-(2,4-difluoro-phenylthiocarbamoyl)-piperidin-4-yl]-[4-(1H-indol-3-yl)-piperidin-1-yl]-acetic acid] it was 5.57; in that of `O=CNCC(C1CCN(C(=O)/C=C/c2cc(F)cc(F)c2)CC1)N1CCC(c2c[nH]c3ccccc23)CC1` (stereo not shown) [Cpd 221], 6.39; in that of `N=C(NC(=O)c1ccc(Cl)c(Cl)c1)N1CCC(C(C(=O)O)N2CCC(c3c[nH]c4ccccc34)CC2)CC1` (stereo not shown) [Cpd 50, {1-[(3,4-dichloro-benzoylamino)-imino-methyl]-piperidin-4-yl}-[4-(1H-indol-3-yl)-piperidin-1-yl]-acetic acid], 7.52. `N=C(NC(=O)c1cc(F)cc(F)c1)N1CCC(C(C(=O)O)N2CCC(c3c[nH]c4ccccc34)CC2)CC1` (stereo not shown) [Cpd 51, {1-[(3,5-difluoro-benzoylamino)-imino-methyl]-piperidin-4-yl}-[4-(1H-indol-3-yl)-piperidin-1-yl]-acetic acid] showed a pIC50 of 6.52. Still for that read-out and setting: under `COc1ccc(NC(=O)N2CCC(C(C(=O)O)N3CCC(c4c[nH]c5ccccc45)CC3)CC2)cc1` (stereo not shown) [Cpd 69, [4-(1H-indol-3-yl)-piperidin-1-yl]-[1-(4-methoxy-phenylcarbamoyl)-piperidin-4-yl]-acetic acid] stands 4.85. For the molecule `COc1ccc(/C=C/C(=O)N2CCC(C(C(=O)O)N3CCC(c4c[nH]c5ccccc45)CC3)CC2)cc1OC` (stereo not shown) [Cpd 63, {1-[(2E)-3-(3,4-dimethoxy-phenyl)-acryloyl]-piperidin-4-yl}-[4-(1H-indol-3-yl)-piperidin-1-yl]-acetic acid], the pIC50 is 5.79. For `O=C(O)C(C1CCN(C(=O)Nc2ccc(F)cc2)CC1)N1CCC(c2c[nH]c3ccccc23)CC1` (stereo not shown) [Cpd 90, [1-(4-fluoro-phenylcarbamoyl)-piperidin-4-yl]-[4-(1H-indol-3-yl)-piperidin-1-yl]-acetic acid], the pIC50 was 6.32. `O=C(/C=C/c1ccc(Cl)c(Cl)c1)N1CCC(C(CO)N2CCC(c3nccs3)CC2)CC1` (stereo not shown) [Cpd 196] showed a pIC50 of 5.24. Take `CCOC(=O)C(C1CCN(C(=O)/C=C/c2cc(F)c(F)c(F)c2)CC1)N1CCC(c2c[nH]c3ncccc23)CC1` (stereo not shown) [Cpd 152, [4-(1H-pyrrolo[2,3-b]pyridin-3-yl)-piperidin-1-yl]-{1-[(2E)-3-(3,4,5-trifluoro-phenyl)-acryloyl]-piperidin-4-yl}-acetic acid ethyl ester]: the pIC50 was 5.72. For the molecule `CCNC(=O)NCC(C1CCN(C(=O)/C=C/c2cc(F)c(F)c(F)c2)CC1)N1CCC(c2c[nH]c3ccccc23)CC1` (stereo not shown) [Cpd 228], the pIC50 is 5.62. `COc1cccc(C2CCN(C(CO)C3CCN(C(=O)/C=C/c4cc(F)cc(F)c4)CC3)CC2)c1` (stereo not shown) [Cpd 197] gave a pIC50 of 5.92. Molecule `COc1cccc2c(C3CCN(C(CO)C4CCN(C(=O)OC(C)(C)C)CC4)CC3)c[nH]c12` (stereo not shown) [Cpd 131, 4-{2-hydroxy-1-[4-(7-methoxy-1H-indol-3-yl)-piperidin-1-yl]-ethyl}-piperidine-1-carboxylic acid tert-butyl ester] showed a pIC50 of 5.41. `COC(=O)NCC(C1CCN(C(=O)/C=C/c2cc(F)cc(F)c2)CC1)N1CCC(c2c[nH]c3ccccc23)CC1` (stereo not shown) [Cpd 239] showed a pIC50 of 5.52.

Regarding `O=C(O)C(C1CCN(C(=O)Nc2ccc(Cl)cc2F)CC1)N1CCC(c2c[nH]c3ccccc23)CC1` (stereo not shown) [Cpd 117, [1-(4-chloro-2-fluoro-phenylcarbamoyl)-piperidin-4-yl]-[4-(1H-indol-3-yl)-piperidin-1-yl]-acetic acid], the negative-log IC50 (pIC50) is 6.00. The molecule `Cc1cccc(/C=C/C(=O)N2CCC(C(CNC=O)N3CCC(c4c[nH]c5ccccc45)CC3)CC2)c1` (stereo not shown) [Cpd 223] had a pIC50 of 5.39. In the case of `O=C(CC1CCN(C(C(=O)O)C2CCN(C(=O)/C=C/c3cc(F)cc(F)c3)CC2)CC1)NCc1ccccc1` (stereo not shown) [Cpd 148, [4-(benzylcarbamoyl-methyl)-piperidin-1-yl]-{1-[(2E)-3-(3,5-difluoro-phenyl)-acryloyl]-piperidin-4-yl}-acetic acid], the negative logarithm of the IC50 (pIC50) is 5.06. In turn, `CS(=O)(=O)Nc1ccc(C2CCN(C(C(=O)O)C3CCN(C(=O)/C=C/c4cc(F)c(F)c(F)c4)CC3)CC2)cc1` (stereo not shown) [Cpd 206, [4-(4-methanesulfonylamino-phenyl)-piperidin-1-yl]-{1-[(2E)-3-(3,4,5-trifluoro-phenyl)-acryloyl]-piperidin-4-yl}-acetic acid] showed a negative-log IC50 (pIC50) of 5.70. As a reminder, the inhibition is the change of the read-out against control, counted positive when it falls. Turning to `O=C(C1CC1c1ccc(Cl)c(Cl)c1)N1CCC(C(CO)N2CCC(c3c[nH]c4ccccc34)CC2)CC1` (stereo not shown) [Cpd 212, [2-(3,4-dichloro-phenyl)-cyclopropyl]-(4-{2-hydroxy-1-[4-(1H-indol-3-yl)-piperidin-1-yl]-ethyl}-piperidin-1-yl)-methanone], the inhibition at 25 µM (read-out: Inhibition of MCP-1 Binding, percent inhibition) amounted to 58%. `O=C(O)C(C1CCN(C(=O)/C=C/c2cc(F)cc(F)c2)CC1)N1CCC(c2n[nH]c3ccccc23)CC1` (stereo not shown) [Cpd 177, {1-[(2E)-3-(3,5-difluoro-phenyl)-acryloyl]-piperidin-4-yl}-[4-(1H-indazol-3-yl)-piperidin-1-yl]-acetic acid] gave a pIC50 of 5.52. `O=C(O)C(C1CCN(C(=O)NCc2ccc(Cl)c(Cl)c2)CC1)N1CCC(c2c[nH]c3ccccc23)CC1` (stereo not shown) [Cpd 84, [1-(3,4-dichloro-benzylcarbamoyl)-piperidin-4-yl]-[4-(1H-indol-3-yl)-piperidin-1-yl]-acetic acid] showed a pIC50 of 5.54.

`COC(=O)c1ccc(C2CCN(C(C(=O)O)C3CCN(C(=O)/C=C/c4cc(F)cc(F)c4)CC3)CC2)cc1` (stereo not shown) [Cpd 145, 4-[1-(carboxy-{1-[(2E)-3-(3,5-difluoro-phenyl)-acryloyl]-piperidin-4-yl}-methyl)-piperidin-4-yl]-benzoic acid methyl ester] gave a pIC50 of 5.23. Same read-out and setting: in the case of `O=C(O)C(C1CCN(C(=S)Nc2cc(F)cc(F)c2)CC1)N1CCC(c2c[nH]c3ccccc23)CC1` (stereo not shown) [Cpd 55, [1-(3,5-difluoro-phenylthiocarbamoyl)-piperidin-4-yl]-[4-(1H-indol-3-yl)-piperidin-1-yl]-acetic acid] it was 6.94; in that of `O=C(O)C(C1CCN(C(=S)Nc2ccc(Cl)c(Cl)c2)CC1)N1CCC(c2c[nH]c3ccccc23)CC1` (stereo not shown) [Cpd 64, [1-(3,4-dichloro-phenylthiocarbamoyl)-piperidin-4-yl]-[4-(1H-indol-3-yl)-piperidin-1-yl]-acetic acid], 7.70; in that of `O=C(O)C(C1CCN(C(=S)Nc2ccccc2)CC1)N1CCC(c2c[nH]c3ccccc23)CC1` (stereo not shown) [Cpd 43, [4-(1H-indol-3-yl)-piperidin-1-yl]-(1-phenylthiocarbamoyl-piperidin-4-yl)-acetic acid], 5.96. Consider `O=C(O)C(C1CCN(C(=O)/C=C/c2cc(F)c(F)c(F)c2)CC1)N1CCC(Cc2c[nH]c3ccccc23)CC1` (stereo not shown) [Cpd 12, [4-(1H-indol-3-ylmethyl)-piperidin-1-yl]-{1-[(2E)-3-(3,4,5-trifluoro-phenyl)-acryloyl]-piperidin-4-yl}-acetic acid], for which the pIC50 is 6.39. The same measure, in the same setting: under `CN(C)CC(C1CCN(C(=O)/C=C/c2cc(F)cc(F)c2)CC1)N1CCC(c2c[nH]c3ccccc23)CC1` (stereo not shown) [Cpd 130, (2E)-3-(3,5-difluoro-phenyl)-1-(4-{2-dimethylamino-1-[4-(1H-indol-3-yl)-piperidin-1-yl]-ethyl}-piperidin-1-yl)-propenone] stands 5.07; under `COC(=O)C(C1CCN(C(=O)/C=C/c2cc(F)cc(F)c2)CC1)N1CCC(c2ccc(OC)cc2)CC1` (stereo not shown) [Cpd 3, {1-[(2E)-3-(3,5-difluoro-phenyl)-acryloyl]-piperidin-4-yl}-[4-(4-methoxy-phenyl)-piperidin-1-yl]-acetic acid methyl ester], 5.42; under `COC(=O)c1ccc(NC(=O)N2CCC(C(C(=O)O)N3CCC(c4c[nH]c5ccccc45)CC3)CC2)cc1` (stereo not shown) [Cpd 68, 4-[(4-{carboxy-[4-(1H-indol-3-yl)-piperidin-1-yl]-methyl}-piperidine-1-carbonyl)-amino]-benzoic acid methyl ester], 5.45. The molecule `O=C(/C=C/c1cc(F)c(F)c(F)c1)N1CCC(C(CO)N2CCC(c3coc4ncccc34)CC2)CC1` (stereo not shown) [Cpd 248, (2E)-1-{4-[1-(4-furo[2,3-b]pyridin-3-yl-piperidin-1-yl)-2-hydroxy-ethyl]-piperidin-1-yl}-3-(3,4,5-trifluoro-phenyl)-propenone] showed a pIC50 of 5.72. Same read-out and setting: under `CCNC(=O)NCC(C1CCN(C(=O)/C=C/c2ccc(Cl)c(Cl)c2)CC1)N1CCC(c2c[nH]c3ccccc23)CC1` (stereo not shown) [Cpd 230] stands 5.68.

Values taken from patent US20060069123A1, “Substituted dipiperidine CCR2 antagonists” (priority 2004, published 2006).
